The nature of data set [1]: Stability test in liver microsomes. It is filed as in vitro ADME, SD rat. Conditions: rat liver microsomes, 0.5 mg/mL, 1.0 µM substrate. As to the method:
Phase I metabolic stability of the test compounds in liver microsomes of CD-1 mice, Sprague-Dawley rats, and humans was assessed.
The animal and human liver microsomes used in the test system were purchased from Xenotech, Corning, or other qualified suppliers and stored in a freezer at a temperature below -60 °C prior to use. The information of the animal and human liver microsomes used was as follows:
The test samples and the reference compounds were separately incubated with animal and human liver microsomes at 37±1 °C for a period of incubation time of up to 60 min. The samples were taken out at the indicated time points, and the reaction was stopped with acetonitrile or another organic solvent containing an internal standard. After centrifugation, the resulting supernatants were assayed by the liquid chromatography-tandem mass spectrometry (LC-MS/MS) method.
Microsomes of each species were diluted into a 2× working solution with a 100 mM potassium phosphate buffer. […]
Incubation was performed in a 96-well plate. Eight incubation plates were prepared and designated T0, T5, T15, T30, T45, T60, Blank60, and NCF60, respectively. The first 6 plates corresponded to reaction time points of 0 min, 5 min, 15 min, 30 min, 45 min, and 60 min, respectively. No test sample or reference compound was added to the Blank60 plate, and samples were taken after 60 min of incubation. In the NCF60 plate, incubation was performed for 60 min using the potassium phosphate buffer instead of the NADPH regeneration system solution. Three replicates were made for samples in all conditions.
The microsomes and the test sample or reference compound were mixed, and then the incubation plates Blank60, T5, T15, T30, T45, and T60 except for T0 and NCF60 were placed in a 37 °C water bath for pre-incubation for about 10 min. In the incubation plate T0, a stop solution was first added, followed by the addition of the NADPH regeneration system working solution, and 98 µL of the potassium phosphate buffer was added to each sample well of the incubation plate NCF60 to initiate the reaction. After the pre-incubation of the incubation plates Blank60, T5, T15, T30, T45, and T60 was completed, 98 µL of the NADPH regeneration system working solution was added to each sample well to initiate the reaction. The reaction temperature was 37±1 °C, the final volume of the reaction was 200 µL, and the reaction system included 0.5 mg/mL microsomes, 1.0 µM substrate, 1 mM NADP, 6 mM ISO, and 1 unit/mL IDH.
At 5 min, 15 min, 30 min, 45 min, and 60 min, a cold stop solution containing an internal standard was added to the reaction plate to stop the reaction.
All the reaction plates after the reaction was stopped were shaken well and centrifuged at 3220× g at 4 °C for 20 min. After the supernatant was diluted at a certain ratio, LC-MS/MS analysis was performed.
Sample analysis was performed by the liquid chromatography-tandem mass spectrometry (LC-MS/MS) method without standard curves and quality control samples. Semi-quantitative determination was performed according to the ratio of the analyte peak area to the internal standard peak area. The retention times of the analyte and internal standard, the chromatogram acquisition, and chromatogram integration were processed using the Analyst software (Sciex, Framingham, Massachusetts, USA).
According to the well stir model, the hepatic intrinsic clearance and hepatic clearance can be converted through the following formula. CL(liver) = (CLint(liver)×Qh)/(CLint(liver)+Qh) [formula]

Data set [2] addresses T1, Cytochrome Oxidase P450 2C19 (Homo sapiens, UniProt P33261).
T1 construct: a biochemical reaction of prepared liver microsomes supplemented with a redox coenzyme; from tissue; host or cells: liver microsomes
In words: Inhibition of cytochrome oxidase P450. It is filed as in vitro ADME. Particulars: liver microsomes. How it is done:
(§1) Efficacy Experimental Example 5: Inhibition of Cytochrome Oxidase P450
(§2) 100 mM K-Buffer: 9.5 mL of stock solution A was mixed with 40.5 mL of stock solution B, the total volume was adjusted to […] with ultrapure water, and the buffer was titrated to pH 7.4 with KOH or H3PO4.
(§3) The test substance powder was prepared into a stock solution at a certain concentration with DMSO or another organic solvent, which was then further diluted with a suitable organic solvent.
(§4) The liver microsomal in vitro incubation system for the CYP450 enzyme metabolism phenotype study was a biochemical reaction of prepared liver microsomes supplemented with a redox coenzyme and an enzyme-specific selective inhibitor under simulated physiological temperature and environment conditions.
(§5) The concentration of the parent drug or a metabolite thereof in the incubation solution was determined by LC-MS/MS.
(In general: Liver microsomes are a subcellular fraction often used to study metabolism.)

Data set [3] deals with T2, Cytochrome Oxidase P450 2C9 (Homo sapiens, UniProt P11712).
T2 construct: a biochemical reaction of prepared liver microsomes supplemented with a redox coenzyme; from tissue; host or cells: liver microsomes
The data set is described as follows: Inhibition of cytochrome oxidase P450. Particulars: liver microsomes. It counts as in vitro ADME. As to the method: as §1, §2, §3, §4, §5

The subject of data set [4] is NCI-H2452 (NF2 wide-type). In words: Inhibition of cell proliferation (CellTiter-Lumi). Particulars: Homo sapiens, 72 h + another 72 h treatment. It counts as cell-based.
The next data set relates to NCI-H28 (NF2 wide-type). In words: Inhibition of cell proliferation (CellTiter-Lumi). It counts as cell-based. Conditions: Homo sapiens, 72 h + another 72 h treatment.
The test system of another data set is MSTO-211H cells. In words: Pharmacodynamic test, MSTO-211H subcutaneous xenograft. It counts as in vivo, nude mice (BALB/c nu/nu). Conditions: MSTO-211H xenograft. As to the method: Healthy female nude mice (BALB/c nu/nu) aged 6-8 weeks were housed in an SPF environment in accordance with animal ethical guidelines. The well-growing 5M MSTO-211H cells were harvested through trypsin digestion, washed in phosphate-buffered saline (PBS), and then resuspended in PBS containing 50% matrigel (BD Biosciences).
Subcutaneous injection was then performed at the dorsolateral sites of the mice, and the tumor volume was measured once every three days thereafter. When the tumor volume reached around 150-200 mm^3, the mice were randomly assigned to different treatment groups. Any one of the compounds described herein was prepared accordingly and administered at an appropriate dose. Finally, the tumor growth in the nude mice was analyzed after 4 to 6 weeks based on the growth of the tumors.

The text below walks through data of patent publication EP4596561A1, “PHOSPHORUS-CONTAINING COMPOUND, PHARMACEUTICAL COMPOSITION AND USE THEREOF” (Suzhou Genhouse Bio Co., Ltd., priority 2022, dated 2024).

Some results are limits rather than exact numbers.

Usually half-life stands for the time in which the quantity being followed falls by half. A high value points to slow decline. By IC50 is commonly meant the concentration needed to halve the response being measured.

T1 sequence (P33261 whole entry): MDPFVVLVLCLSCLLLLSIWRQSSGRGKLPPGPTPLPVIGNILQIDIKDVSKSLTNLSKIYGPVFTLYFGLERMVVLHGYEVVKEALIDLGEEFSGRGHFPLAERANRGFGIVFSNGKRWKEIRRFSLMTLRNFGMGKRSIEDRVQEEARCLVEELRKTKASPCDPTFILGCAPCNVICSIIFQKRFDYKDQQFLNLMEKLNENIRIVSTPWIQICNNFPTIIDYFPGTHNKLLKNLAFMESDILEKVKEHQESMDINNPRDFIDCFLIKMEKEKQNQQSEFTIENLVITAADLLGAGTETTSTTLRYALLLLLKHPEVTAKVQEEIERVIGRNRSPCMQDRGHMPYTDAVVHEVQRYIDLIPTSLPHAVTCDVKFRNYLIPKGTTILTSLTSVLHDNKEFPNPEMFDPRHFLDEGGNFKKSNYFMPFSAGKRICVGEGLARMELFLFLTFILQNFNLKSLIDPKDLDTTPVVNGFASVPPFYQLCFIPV
T2 sequence (P11712 whole entry): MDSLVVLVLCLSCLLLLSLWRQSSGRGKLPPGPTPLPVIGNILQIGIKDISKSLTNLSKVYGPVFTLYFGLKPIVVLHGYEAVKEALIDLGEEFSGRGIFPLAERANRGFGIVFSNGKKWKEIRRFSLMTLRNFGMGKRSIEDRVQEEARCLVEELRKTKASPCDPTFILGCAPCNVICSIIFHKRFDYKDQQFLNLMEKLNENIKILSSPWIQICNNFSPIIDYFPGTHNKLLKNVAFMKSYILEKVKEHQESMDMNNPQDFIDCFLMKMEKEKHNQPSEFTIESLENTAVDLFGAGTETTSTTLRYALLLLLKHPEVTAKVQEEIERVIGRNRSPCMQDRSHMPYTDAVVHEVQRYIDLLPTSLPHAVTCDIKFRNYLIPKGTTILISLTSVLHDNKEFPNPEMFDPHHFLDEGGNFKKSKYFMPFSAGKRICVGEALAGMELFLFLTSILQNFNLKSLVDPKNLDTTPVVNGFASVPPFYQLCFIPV

`CP(C)(=O)c1ccc2c(c1)c1ccccc1n2-c1ccc(C(F)(F)F)cc1` [Example 1]: in data set [1], the half-life at 1 µM is > 2.42 h. Besides, the IC50 in data set [2] and in data set [3] was > 10 µM each time.

Regarding `CP(C)(=O)c1ccc2c(c1)c1cccnc1n2-c1ccc(C(F)(F)F)cc1` [Example 5], the IC50 in data set [4] is > 20 µM; in the data set with NCI-H28 (NF2 wide-type), > 1.25 µM.

Consider `CP(C)(=O)c1ccc2c(Oc3ccc(C(F)(F)F)cc3)cccc2c1` [Example 7], for which the half-life at 1 µM in data set [1] is > 2.42 h. Besides, the IC50 in data set [2] and in data set [3] was > 10 µM throughout. In addition, the TGI in the data set on MSTO-211H cells (25mpk QD) is 25mpk QD TGI = 107.93%.

For the compound `Cn1cnc(-c2cc(P(C)(C)=O)cnc2Nc2ccc(C(F)(F)F)cc2)c1` [Example 8], the half-life at 1 µM in data set [1] was > 2.42 h. Besides, the IC50 in data set [2] and in data set [3] was > 10 µM throughout. In the data set with MSTO-211H cells (50mpk QD), the TGI came out at 50mpk QD TGI = 104.28%.

`CP(C)(=O)c1ccc(Nc2ccc(C(F)(F)F)cc2)c(-c2ccccn2)c1` [Example 10]: the IC50 is > 5 µM in data set [4] and > 1.25 µM in the data set with NCI-H28 (NF2 wide-type). For the same compound, in data set [1], the half-life at 1 µM was > 2.42 h.

In the case of `CP(C)(=O)c1ccc(Nc2ccc(C(F)(F)F)cc2)c(-c2ncccn2)c1` [Example 12], the figures for the IC50 (in data set [4]; with NCI-H28 (NF2 wide-type)) were > 20 µM and > 5 µM, respectively. Moreover, in data set [1], the half-life at 1 µM is > 2.42 h.

Regarding `Cn1cnc(-c2cc(P(C)(C)=O)ccc2Nc2ccc(C(F)(F)F)cc2)c1` [Example 14], in data set [1], the half-life at 1 µM was > 2.42 h. Moreover, the IC50 in data set [2] and in data set [3] was > 10 µM each time. Moreover, the results for the TGI with MSTO-211H cells (50mpk QD) and with MSTO-211H cells (150mpk QD) were 50mpk QD TGI = 100.43% and 150mpk QD TGI = 118.27%, respectively.

As to `CP(C)(=O)c1cnc(Nc2ccc(C(F)(F)F)cc2)c(-c2cn3c(n2)CCC3)c1` [Example 22], in data set [1], the half-life at 1 µM is > 2.42 h. Further, the concentration for half-maximal inhibition (IC50) in data set [2] and in data set [3] was > 10 µM throughout. Also, the TGI with MSTO-211H cells (150mpk QD) is given as 150mpk QD TGI = 102.62%.

As for `Cc1ccc(Oc2ccc(C(F)(F)F)cc2)c2ccc(P(C)(C)=O)cc12` [Example 24], the half-life at 1 µM in data set [1] worked out at 1.37 h.
